# Experimental data reported in publication PMC8374649, “IBI362 (LY3305677), a weekly-dose GLP-1 and glucagon receptor dual agonist, in Chinese adults with overweight or obesity: A randomised, placebo-controlled, multiple ascending dose phase 1b study” (EClinicalMedicine, 2021).
# Tested on: Chinese adults with overweight or obesity
# Assay: Safety and tolerability (treatment emergent adverse events), multiple ascending dose phase 1b study
# Format: in vivo, human
# Protocol: The study included a 3-week screening period, a 12-week treatment period and an 8-week safety follow-up period. During the 12-week treatment period, the dose of IBI362 or placebo was escalated within each cohort according to one of the three dose-escalation schedules (Fig. S1). The dose-escalation regimen for the 3.0 mg cohort was 1.0 mg for 4 weeks, followed by 2.0 mg for 4 weeks and then 3.0 mg for the final 4 weeks. The dose-escalation regimen for the 4.5 mg cohort was 1.5 mg for 4 weeks, followed by 3.0 mg for 4 weeks and then 4.5 mg for the final 4 weeks. The dose-escalation regimen for the 6.0 mg cohort was 2.0 mg for 4 weeks, followed by 4.0 mg for 4 weeks and then 6.0 mg for the final 4 weeks. The 6.0 mg cohort started dosing after tolerability evaluation of 1.5 mg dosing in the 4.5 mg cohort. The internal unblinded safety monitoring group was responsible for the safety monitoring. All treatments were subcutaneously administered once a week. Investigators and authorized study personnel in each centre recorded the study data into the electronic case report forms (eCRFs), which were reviewed and validated by clinical research associates (CRAs). The data in the eCRFs were submitted to the electronic data capture (EDC) database. HbA1c, fasting plasma glucose and fasting insulin tests were performed in a central lab (Wuxi AppTec Inc.).
# The primary endpoints of the study were safety and tolerability of IBI362. Adverse events (AEs) were categorised according to the Medical Dictionary for Regulatory Activities system organ class and preferred terms. Treatment emergent adverse events (TEAEs) and serious adverse events were monitored in all participants throughout the treatment period and the safety follow-up period. The severity of the AEs (mild, moderate or severe) and the association between an AE and the study drug was assessed by investigators based on pre-specified criteria.
# Safety analyses were done in the safety population (defined as all participants who received at least one dose of the study treatment). Pharmacokinetic analyses were done in the pharmacokinetic population (defined as all participants who received at least one dose of IBI362 and had at least one valid plasma concentration assessment). Pharmacodynamic analyses were done in the pharmacodynamic population (defined as all participants who received at least one dose of the study treatment and had baseline and at least one valid assessment). Efficacy analyses were done in the efficacy population (defined as all participants who received at least one dose of the study treatment and had at least one post-baseline assessment).
# [1] = 3.0 mg cohort (1.0-2.0-3.0 mg sc once weekly, 4 weeks each), n = 8
# [2] = 4.5 mg cohort (1.5-3.0-4.5 mg sc once weekly, 4 weeks each), n = 8
# [3] = 6.0 mg cohort (2.0-4.0-6.0 mg sc once weekly, 4 weeks each), n = 8
compound,measurement,setting,value
CC(C)C[C@H](NC(=O)[C@H](CC(C)C)NC(=O)[C@H](Cc1c[nH]c2ccccc12)NC(=O)[C@H](CCC(=O)O)NC(=O)[C@@H](NC(=O)[C@H](Cc1ccccc1)NC(=O)[C@H](CCC(=O)O)NC(=O)[C@H](CCCCNC(=O)COCCOCCNC(=O)COCCOCCNC(=O)CC[C@H](NC(=O)CCCCCCCCCCCCCCCCCCC(=O)O)C(=O)O)NC(=O)[C@H](C)NC(=O)[C@H](CCCCN)NC(=O)[C@H](CCCCN)NC(=O)[C@H](CCC(=O)O)NC(=O)[C@H](CC(=O)O)NC(=O)[C@H](CC(C)C)NC(=O)[C@H](Cc1ccc(O)cc1)NC(=O)[C@H](CCCCN)NC(=O)[C@H](CO)NC(=O)[C@H](Cc1ccc(O)cc1)NC(=O)[C@H](CC(=O)O)NC(=O)[C@H](CO)NC(=O)[C@@H](NC(=O)[C@H](Cc1ccccc1)NC(=O)[C@@H](NC(=O)CNC(=O)[C@H](CCC(N)=O)NC(=O)C(C)(C)NC(=O)[C@@H](N)Cc1c[nH]cn1)[C@@H](C)O)[C@@H](C)O)C(C)C)C(=O)N[C@@H](CCC(=O)O)C(=O)NCC(=O)NCC(=O)N1CCC[C@H]1C(=O)N[C@@H](CO)C(=O)N[C@@H](CO)C(=O)NCC(N)=O [IBI362],Abdominal distension,[1],1 (12.5) n (%)
same,Abdominal pain,[1],0 n (%)
same,Atrioventricular block first degree,[1],1 (12.5) n (%)
same,Back pain,[1],1 (12.5) n (%)
same,Blood glucose increased,[1],0 n (%)
same,Calculus urinary,[1],1 (12.5) n (%)
same,Cardiac disorders (system organ class),[1],1 (12.5) n (%)
same,Constipation,[1],1 (12.5) n (%)
same,Decreased appetite,[1],1 (12.5) n (%)
same,Diarrhea,[1],0 n (%)
same,Dry mouth,[1],0 n (%)
same,Dyslipidaemia,[1],0 n (%)
same,Dysmenorrhoea,[1],1 (12.5) n (%)
same,Dyspepsia,[1],0 n (%)
same,Fatigue,[1],0 n (%)
same,Folliculitis,[1],0 n (%)
same,"Gastrointestinal AE, Mild",[1],2 (25.0) n (%)
same,"Gastrointestinal AE, Moderate",[1],1 (12.5) n (%)
same,Gastrointestinal disorders (system organ class),[1],4 (50.0) n (%)
same,Gastrointestinal inflammation,[1],1 (12.5) n (%)
same,General disorders and administration site conditions (system organ class),[1],1 (12.5) n (%)
same,Hiccups,[1],0 n (%)
same,Hyperlipidaemia,[1],0 n (%)
same,Hyperuricaemia,[1],0 n (%)
same,Hypoglycaemia event,[1],0 n (%)
same,Infections and infestations (system organ class),[1],4 (50.0) n (%)
same,"Injury, poisoning and procedural complications (system organ class)",[1],1 (12.5) n (%)
same,Investigations (system organ class),[1],0 n (%)
same,Menstruation irregular,[1],0 n (%)
same,Mental fatigue,[1],0 n (%)
same,Metabolism and nutrition disorders (system organ class),[1],1 (12.5) n (%)
same,Mouth ulceration,[1],1 (12.5) n (%)
same,Musculoskeletal and connective tissue disorders (system organ class),[1],1 (12.5) n (%)
same,Myocardial ischemia,[1],0 n (%)
same,Nasopharyngitis,[1],1 (12.5) n (%)
same,Nausea,[1],0 n (%)
same,Neutrophil count increased,[1],0 n (%)
same,Oropharyngeal pain,[1],0 n (%)
same,Proteinuria,[1],0 n (%)
same,Psychiatric disorders (system organ class),[1],0 n (%)
same,Pyrexia,[1],1 (12.5) n (%)
same,Renal and urinary disorders (system organ class),[1],1 (12.5) n (%)
same,Reproductive system and breast disorders (system organ class),[1],1 (12.5) n (%)
same,"Respiratory, thoracic and mediastinal disorders (system organ class)",[1],0 n (%)
same,Serious adverse event,[1],0 n (%)
same,Sinus tachycardia,[1],0 n (%)
same,Skin and subcutaneous tissue disorders (system organ class),[1],1 (12.5) n (%)
same,Soft tissue injury,[1],1 (12.5) n (%)
same,Starvation,[1],0 n (%)
same,TEAE (individuals with ≥ 1 TEAE),[1],6 (75.0) n (%)
same,Thermal burn,[1],0 n (%)
same,Tonsillitis,[1],1 (12.5) n (%)
same,Treatment-related AE,[1],3 (37.5) n (%)
same,Upper respiratory tract infection,[1],2 (25.0) n (%)
same,Urticaria,[1],1 (12.5) n (%)
same,Vomiting,[1],1 (12.5) n (%)
same,White blood cell count increased,[1],0 n (%)
same,Abdominal distension,[2],0 n (%)
same,Abdominal pain,[2],2 (25.0) n (%)
same,Atrioventricular block first degree,[2],0 n (%)
same,Back pain,[2],0 n (%)
same,Blood glucose increased,[2],0 n (%)
same,Calculus urinary,[2],0 n (%)
same,Cardiac disorders (system organ class),[2],2 (25.0) n (%)
same,Constipation,[2],0 n (%)
same,Decreased appetite,[2],5 (62.5) n (%)
same,Diarrhea,[2],3 (37.5) n (%)
same,Dry mouth,[2],2 (25.0) n (%)
same,Dyslipidaemia,[2],1 (12.5) n (%)
same,Dysmenorrhoea,[2],0 n (%)
same,Dyspepsia,[2],0 n (%)
same,Fatigue,[2],1 (12.5) n (%)
same,Folliculitis,[2],0 n (%)
same,Gastrointestinal AE,[2],5 (62.5) n (%)
same,"Gastrointestinal AE, Mild",[2],5 (62.5) n (%)
same,"Gastrointestinal AE, Moderate",[2],0 n (%)
same,Gastrointestinal disorders (system organ class),[2],5 (62.5) n (%)
same,Gastrointestinal inflammation,[2],0 n (%)
same,General disorders and administration site conditions (system organ class),[2],1 (12.5) n (%)
same,Hiccups,[2],0 n (%)
same,Hyperlipidaemia,[2],0 n (%)
same,Hyperuricaemia,[2],1 (12.5) n (%)
same,Hypoglycaemia event,[2],0 n (%)
same,Infections and infestations (system organ class),[2],2 (25.0) n (%)
same,"Injury, poisoning and procedural complications (system organ class)",[2],1 (12.5) n (%)
same,Investigations (system organ class),[2],1 (12.5) n (%)
same,Menstruation irregular,[2],0 n (%)
same,Mental fatigue,[2],1 (12.5) n (%)
same,Metabolism and nutrition disorders (system organ class),[2],6 (75.0) n (%)
same,Mouth ulceration,[2],0 n (%)
same,Musculoskeletal and connective tissue disorders (system organ class),[2],0 n (%)
same,Myocardial ischemia,[2],1 (12.5) n (%)
same,Nasopharyngitis,[2],0 n (%)
same,Nausea,[2],3 (37.5) n (%)
same,Neutrophil count increased,[2],1 (12.5) n (%)
same,Oropharyngeal pain,[2],1 (12.5) n (%)
same,Proteinuria,[2],2 (25.0) n (%)
same,Psychiatric disorders (system organ class),[2],1 (12.5) n (%)
same,Pyrexia,[2],0 n (%)
same,Renal and urinary disorders (system organ class),[2],2 (25.0) n (%)
same,Reproductive system and breast disorders (system organ class),[2],0 n (%)
same,"Respiratory, thoracic and mediastinal disorders (system organ class)",[2],1 (12.5) n (%)
same,Serious adverse event,[2],0 n (%)
same,Sinus tachycardia,[2],1 (12.5) n (%)
same,Skin and subcutaneous tissue disorders (system organ class),[2],0 n (%)
same,Soft tissue injury,[2],0 n (%)
same,Starvation,[2],0 n (%)
same,TEAE (individuals with ≥ 1 TEAE),[2],7 (87.5) n (%)
same,Thermal burn,[2],1 (12.5) n (%)
same,Tonsillitis,[2],0 n (%)
same,Treatment-related AE,[2],7 (87.5) n (%)
same,Upper respiratory tract infection,[2],2 (25.0) n (%)
same,Urticaria,[2],0 n (%)
same,Vomiting,[2],0 n (%)
same,White blood cell count increased,[2],1 (12.5) n (%)
same,Abdominal distension,[3],0 n (%)
same,Abdominal pain,[3],0 n (%)
same,Atrioventricular block first degree,[3],0 n (%)
same,Back pain,[3],0 n (%)
same,Blood glucose increased,[3],0 n (%)
same,Calculus urinary,[3],0 n (%)
same,Cardiac disorders (system organ class),[3],0 n (%)
same,Constipation,[3],0 n (%)
same,Decreased appetite,[3],1 (12.5) n (%)
same,Diarrhea,[3],3 (37.5) n (%)
same,Dry mouth,[3],0 n (%)
same,Dyslipidaemia,[3],0 n (%)
same,Dysmenorrhoea,[3],0 n (%)
same,Dyspepsia,[3],1 (12.5) n (%)
same,Fatigue,[3],0 n (%)
same,Folliculitis,[3],1 (12.5) n (%)
same,Gastrointestinal AE,[3],4 (50.0) n (%)
same,"Gastrointestinal AE, Mild",[3],3 (37.5) n (%)
same,"Gastrointestinal AE, Moderate",[3],1 (12.5) n (%)
same,Gastrointestinal disorders (system organ class),[3],4 (50.0) n (%)
same,Gastrointestinal inflammation,[3],0 n (%)
same,General disorders and administration site conditions (system organ class),[3],0 n (%)
same,Hiccups,[3],1 (12.5) n (%)
same,Hyperlipidaemia,[3],0 n (%)
same,Hyperuricaemia,[3],1 (12.5) n (%)
same,Hypoglycaemia event,[3],0 n (%)
same,Infections and infestations (system organ class),[3],1 (12.5) n (%)
same,"Injury, poisoning and procedural complications (system organ class)",[3],0 n (%)
same,Investigations (system organ class),[3],0 n (%)
same,Menstruation irregular,[3],0 n (%)
same,Mental fatigue,[3],0 n (%)
same,Metabolism and nutrition disorders (system organ class),[3],3 (37.5) n (%)
same,Mouth ulceration,[3],0 n (%)
same,Musculoskeletal and connective tissue disorders (system organ class),[3],0 n (%)
same,Myocardial ischemia,[3],0 n (%)
same,Nasopharyngitis,[3],0 n (%)
same,Nausea,[3],1 (12.5) n (%)
same,Neutrophil count increased,[3],0 n (%)
same,Oropharyngeal pain,[3],0 n (%)
same,Proteinuria,[3],0 n (%)
same,Psychiatric disorders (system organ class),[3],0 n (%)
same,Pyrexia,[3],0 n (%)
same,Renal and urinary disorders (system organ class),[3],0 n (%)
same,Reproductive system and breast disorders (system organ class),[3],0 n (%)
same,"Respiratory, thoracic and mediastinal disorders (system organ class)",[3],1 (12.5) n (%)
same,Serious adverse event,[3],0 n (%)
same,Sinus tachycardia,[3],0 n (%)
same,Skin and subcutaneous tissue disorders (system organ class),[3],0 n (%)
same,Soft tissue injury,[3],0 n (%)
same,Starvation,[3],1 (12.5) n (%)
same,TEAE (individuals with ≥ 1 TEAE),[3],6 (75.0) n (%)
same,Thermal burn,[3],0 n (%)
same,Tonsillitis,[3],0 n (%)
same,Treatment-related AE,[3],5 (62.5) n (%)
same,Upper respiratory tract infection,[3],0 n (%)
same,Urticaria,[3],0 n (%)
same,Vomiting,[3],1 (12.5) n (%)
same,White blood cell count increased,[3],0 n (%)
same,Magnitude of heart rate increase,"12-lead ECG, first 6 weeks, more prominent later, especially 6.0 mg cohort, declining from week 9 (Fig. S3)",mild
same,"Amylase, lipase and calcitonin levels",all IBI362 treatment groups (Fig S4),increased in all IBI362 treatment groups but remained mostly within the normal reference range
same,Discontinuation of the study due to safety reason,all cohorts,No participant discontinued the study due to safety reason
same,Hypoglycaemia event or serious adverse event,all cohorts,No hypoglycaemia event or serious adverse event occurred
same,Investigator suspected pancreatitis,all cohorts,No investigator suspected pancreatitis was reported
same,Participants with at least one TEAE,"all participants receiving IBI362 (n = 24), 19 participants",79.2%
same,Nausea,"all participants receiving IBI362 (n = 24), four participants",16.7%
same,Decreased appetite,"all participants receiving IBI362 (n = 24), seven participants",29.2%
same,Diarrhea,"all participants receiving IBI362 (n = 24), six participants",25.0%
